Where “and” joins values, the source holds several entries; their conditions need not be identical. Identical values can stand only once.
What was measured:
[1] = test system: BSAP and PICP serum levels, NTX urine levels; assay: Example 1 clinical trial of rhPTH(1-34) in postmenopausal women: markers of bone formation and resorption; type: in vivo, human
Protocol: • Number of Subjects: • rhPTH(1-34): 1093 enrolled, 848 finished. • Placebo: 544 enrolled, 447 finished. • Diagnosis and Inclusion Criteria: Women ages 30 to 85 years, postmenopausal for a minimum of 5 years, with a minimum of one moderate or two mild atraumatic vertebral fractures. • Dosage and Administration: • Test Product (blinded) • rhPTH(1-34): 20 μg/day, given subcutaneously • rhPTH(1-34): 40 μg/day, given subcutaneously • Reference Therapy (blinded) • Placebo study material for injection • Duration of Treatment: • rhPTH(1-34): 17-23 months (excluding 6-month run-in phase) • Placebo: 17-23 months (excluding 6-month run-in phase) • Criteria for Evaluation: Spine x-ray; serum biological markers (calcium, bone-specific alkaline phosphatase, procollagen I carboxy-terminal propeptide); urine markers (calcium, N-telopeptide, free deoxypyridinoline); 1,25-dihydroxyvitamin D; bone mineral density: spine, hip, wrist, and total body: height; population pharmacokinetics; bone biopsy (selected study sites).
Measures of BSAP, PICP, and NTX levels were determined for each patient through the course of therapy, for example, at 0, 1, 3, 6, 12, 21 and 24 months after the initiation of administration of parathyroid hormone. Parathyroid hormone treatment was discontinued after 17-23 months. The percent change (relative to the initial “0” month levels) for each marker was determined for each patient and is reported in the Figures. The overall changes observed in the 20 μg/day PTH-treated patient population, the 40 μg/day PTH-treated treated patient population, and the placebo patient population were determined by methods known to those of skill in the arts.

[2] = test system: BSAP and PICP serum levels, NTX urine levels; assay: Example 3 clinical trial of rhPTH(1-34) vs alendronate: bone markers; type: in vivo, human; conditions: 40 μg/day PTH
Protocol: • Number of Subjects: • rhPTH(1-34): 73 enrolled, 51 finished. • Alendronate (Fosamax®): 73 enrolled, 57 finished. • Diagnosis and Inclusion Criteria: Women aged 65±8 years, postmenopausal for 19±19 years, selected for a baseline spine bone mineral density of 0.8±0.1 and a T value of −2.2. Dosage and Administration: • Test Product (blinded) • rhPTH(1-34): 40 μg/day, given subcutaneously • Reference (Control) Therapy (blinded) • Alendronate (Fosamax®): 10 mg per patient per day • Duration of Treatment: • rhPTH(1-34): 12-18 months, with follow up from time of withdrawal of drug to 18 months of study. • Alendronate: 12-18 months, with follow up from time of withdrawal of drug to 18 months of study. • Criteria for Evaluation: Spine x-ray, serum biological markers (calcium, bone-specific alkaline phosphatase, procollagen I carboxy-terminal propeptide); urine makers (calcium, N-telopeptide, fir deoxypyridinoline); 1,25-dihydroxyvitamin D; bone mineral density spine, hip, wrist, and total body.
Measures of BSAP, PICP, and NTX levels were determined for each patient through the course of therapy generally according to methods described above in Example 1.

[3] = test system: men with primary osteoporosis; assay: Example 5 study GHAJ: bone densitometry (BMD, BMC) in men; type: in vivo, human; conditions: for Distal Radius (Forearm) BMD, mean change from baseline to endpoint / Distal Radius (Forearm) BMD, mean percent change from baseline to endpoint / Ultradistal Radius (Forearm) BMD, mean change from baseline to endpoint / Ultradistal Radius (Forearm) BMD, mean percent change from baseline to endpoint / Whole body BMD, mean change from baseline to endpoint: subset of patients; for increase in lumbar spine BMD compared to placebo at endpoint: median follow-up approximately 11 months
Protocol: Four hundred thirty seven men with primary osteoporosis were enrolled in the study. Approximately one-third of die patients were randomly assigned to LY333334 40 μg/day plus calcium and vitamin D, one-third of the patients were randomly assigned to LY333334 20 μg/day plus calcium and vitamin D, and one-third of the patients were randomly assigned to placebo plus calcium and vitamin D. • Number of Subjects: • PTH: Male 437, Female 0, Total 437; • LY333334 20 μg: Male: Total 151. • LY333334 40 μg: Male: Total 139. • Placebo: Male: Total 147. • Diagnosis and Inclusion Criteria: The study patients were men with primary osteoporosis, aged 30 to 85 years, inclusive. L-2 to L-4 vertebrae must have been intact without artifacts, crush fracture or other abnormalities which would have interfered with the analysis of the posterior-anterior lumbar spine bone mineral density (BMD) measurement which must have been at least 2.0 SD below that of young, healthy men. […] Patient Demographic and Other Baseline Characteristics

[4] = test system: postmenopausal osteoporotic women; conditions: GHAC efficacy trial, disclosed in PCT/US99/18961; cited from earlier work
[5] = about 5-6 weeks following termination, about 21-24 months after initiation
[6] = about 5-6 weeks following termination (18 months)

SMILES: CC[C@H](C)[C@H](NC(=O)[C@H](CCC(=O)O)NC(=O)[C@H](CO)NC(=O)[C@@H](NC(=O)[C@@H](N)CO)C(C)C)C(=O)N[C@@H](CCC(N)=O)C(=O)N[C@@H](CC(C)C)C(=O)N[C@@H](CCSC)C(=O)N[C@@H](Cc1cnc[nH]1)C(=O)N[C@@H](CC(N)=O)C(=O)N[C@@H](CC(C)C)C(=O)NCC(=O)N[C@@H](CCCCN)C(=O)N[C@@H](Cc1cnc[nH]1)C(=O)N[C@@H](CC(C)C)C(=O)N[C@@H](CC(N)=O)C(=O)N[C@@H](CO)C(=O)N[C@@H](CCSC)C(=O)N[C@@H](CCC(=O)O)C(=O)N[C@@H](CCCN=C(N)N)C(=O)N[C@H](C(=O)N[C@@H](CCC(=O)O)C(=O)N[C@@H](Cc1c[nH]c2ccccc12)C(=O)N[C@@H](CC(C)C)C(=O)N[C@@H](CCCN=C(N)N)C(=O)N[C@@H](CCCCN)C(=O)N[C@@H](CCCCN)C(=O)N[C@@H](CC(C)C)C(=O)N[C@@H](CCC(N)=O)C(=O)N[C@@H](CC(=O)O)C(=O)N[C@H](C(=O)N[C@@H](Cc1cnc[nH]1)C(=O)N[C@@H](CC(N)=O)C(=O)N[C@@H](Cc1ccccc1)C(=O)O)C(C)C)C(C)C [LY333334]
- percent change in PICP serum levels during treatment ([1]; 20 μg/day and 40 μg/day PTH, FIG. 2): reached a peak within about one or two months
- percent change in NTX urine levels during treatment ([1]; 20 μg/day and 40 μg/day PTH, FIG. 3): increased steadily until about 12 months after treatment initiation
- BSAP level after termination of PTH treatment [1, 5]: returned to a level at or slightly higher than placebo control levels
- PICP level after termination of PTH treatment [1, 5]: returned to a level about the same as placebo controls
- percent change in NTX levels after termination of PTH treatment ([1]; about 21-24 months after initiation): declined and returned to levels similar to those observed in the placebo treated group
- BSAP level after termination of PTH treatment ([2]; (18 months)): BSAP remained at an elevated level
- percent change in PICP serum levels during treatment ([2]; FIG. 8): reached a peak within about one or two months
- percent change in NTX urine levels during treatment ([2]; FIG. 9): increased steadily until about 12 months after treatment initiation
- NTX levels after termination of PTH treatment [2, 6]: had declined but remained elevated compared to pretreatment levels
- PICP levels after termination of PTH treatment [2, 6]: PICP levels were the same pre-treatment levels
- patients with a decrease in vertebral BMD at study endpoint ([3]; 20 μg): 7.1%
- increase in whole body BMC compared with the placebo group ([3]; 20 μg group): approximately 0.9%
- Femoral Neck BMD, mean change from baseline to endpoint ([3]; 20 μg/day): 0.01 ± 0.03 g/cm^2
- Femoral Neck BMD, mean percent change from baseline to endpoint ([3]; 20 μg/day): 1.4% and 1.44% and 1.44 ± 3.61%
- Intertrochanter BMD, mean change from baseline to endpoint ([3]; 20 μg/day): 0.01 ± 0.03 g/cm^2
- Intertrochanter BMD, mean percent change from baseline to endpoint ([3]; 20 μg/day): 1.20 ± 3.07%
- Lumbar Spine (L-1 through L-4) BMD, mean change from baseline to endpoint ([3]; 20 μg/day): 0.05 ± 0.04 g/cm^2
- Lumbar Spine (L-1 through L-4) BMD, mean percent change from baseline to endpoint ([3]; 20 μg/day): 5.7% and 5.73% and 5.73 ± 4.46%
- Total Hip BMD, mean change from baseline to endpoint ([3]; 20 μg/day): 0.01 ± 0.02 g/cm^2
- Total Hip BMD, mean percent change from baseline to endpoint ([3]; 20 μg/day): 1.14% and 1.14 ± 2.89%
- Trochanter BMD, mean change from baseline to endpoint ([3]; 20 μg/day): 0.01 ± 0.03 g/cm^2
- Trochanter BMD, mean percent change from baseline to endpoint ([3]; 20 μg/day): 1.25 ± 4.15%
- Ward's Triangle BMD, mean change from baseline to endpoint ([3]; 20 μg/day): 0.01 ± 0.04 g/cm^2
- Ward's Triangle BMD, mean percent change from baseline to endpoint ([3]; 20 μg/day): 2.48 ± 7.20%
- increase in hip (femoral neck) BMC at study endpoint ([3]; 20 μg/day): 1%
- increase in lumbar spine BMC at study endpoint ([3]; 20 μg/day): 7%
- Distal Radius (Forearm) BMD, mean change from baseline to endpoint ([3]; 20 μg/day): −0.00 ± 0.02 g/cm^2
- Distal Radius (Forearm) BMD, mean percent change from baseline to endpoint ([3]; 20 μg/day): −0.47 ± 2.21%
- Ultradistal Radius (Forearm) BMD, mean change from baseline to endpoint ([3]; 20 μg/day): −0.00 ± 0.01 g/cm^2
- Ultradistal Radius (Forearm) BMD, mean percent change from baseline to endpoint ([3]; 20 μg/day): −0.40 ± 3.15%
- Whole body BMD, mean change from baseline to endpoint ([3]; 20 μg/day): 0.01 ± 0.03 g/cm^2
- patients with a decrease in vertebral BMD at study endpoint ([3]; 40 μg): 6.2%
- decrease in distal ⅓ radius (forearm) BMD compared with the placebo group ([3]; 40 μg group): 1.0%
- increase in whole body BMC compared with the placebo group ([3]; 40 μg group): 1.3%
- Femoral Neck BMD, mean change from baseline to endpoint ([3]; 40 μg/day): 0.02 ± 0.04 g/cm^2
- Femoral Neck BMD, mean percent change from baseline to endpoint ([3]; 40 μg/day): 2.9% and 2.85% and 2.85 ± 6.07%
- Intertrochanter BMD, mean change from baseline to endpoint ([3]; 40 μg/day): 0.02 ± 0.04 g/cm^2
- Intertrochanter BMD, mean percent change from baseline to endpoint ([3]; 40 μg/day): 2.32 ± 4.57%
- Lumbar Spine (L-1 through L-4) BMD, mean change from baseline to endpoint ([3]; 40 μg/day): 0.07 ± 0.05 g/cm^2
- Lumbar Spine (L-1 through L-4) BMD, mean percent change from baseline to endpoint ([3]; 40 μg/day): 8.8% and 8.75% and 8.75 ± 6.25%
- Total Hip BMD, mean change from baseline to endpoint ([3]; 40 μg/day): 0.02 ± 0.03 g/cm^2
- Total Hip BMD, mean percent change from baseline to endpoint ([3]; 40 μg/day): 2.33% and 2.33 ± 4.51%
- Trochanter BMD, mean change from baseline to endpoint ([3]; 40 μg/day): 0.01 ± 0.03 g/cm^2
- Trochanter BMD, mean percent change from baseline to endpoint ([3]; 40 μg/day): 1.98 ± 5.16%
- Ward's Triangle BMD, mean change from baseline to endpoint ([3]; 40 μg/day): 0.03 ± 0.05 g/cm^2
- Ward's Triangle BMD, mean percent change from baseline to endpoint ([3]; 40 μg/day): 6.19 ± 10.21%
- increase in hip (femoral neck) BMC at study endpoint ([3]; 40 μg/day): 3%
- increase in lumbar spine BMC at study endpoint ([3]; 40 μg/day): 10%
- Distal Radius (Forearm) BMD, mean change from baseline to endpoint ([3]; 40 μg/day): −0.01 ± 0.02 g/cm^2
- Distal Radius (Forearm) BMD, mean percent change from baseline to endpoint ([3]; 40 μg/day): −0.67 ± 2.36%
- Ultradistal Radius (Forearm) BMD, mean change from baseline to endpoint ([3]; 40 μg/day): 0.00 ± 0.02 g/cm^2
- Ultradistal Radius (Forearm) BMD, mean percent change from baseline to endpoint ([3]; 40 μg/day): 0.54 ± 5.98%
- Whole body BMD, mean change from baseline to endpoint ([3]; 40 μg/day): 0.01 ± 0.03 g/cm^2
- patients with an increase in lumbar spine BMD of 5% or more ([3]; 20-μg group): 54.6%
- lumbar spine BMD increase from baseline by visit ([3]; 20-μg group, Month 3): 2.44%
- lumbar spine BMD increase from baseline by visit ([3]; 20-μg group, Month 6): 4.29
- difference in lumbar spine BMD between treatment group and placebo ([3]; 20-μg group, Month 12): 5.49%
- lumbar spine BMD increase from baseline by visit ([3]; 20-μg group, Month 12): 6.07%
- increase in lumbar spine BMD compared to placebo at endpoint ([3]; 20-μg/day): 5%
- lumbar spine BMD response in hypogonadal vs idiopathic subgroups ([3]; 20 and 40 μg): did not differ significantly
- patients with an increase in lumbar spine BMD of 5% or more ([3]; 40-μg group): 70.5%
- lumbar spine BMD increase from baseline by visit ([3]; 40-μg group, Month 3): 3.87%
- lumbar spine BMD increase from baseline by visit ([3]; 40-μg group, Month 6): 6.33%
- difference in lumbar spine BMD between treatment group and placebo ([3]; 40-μg group, Month 12): 8.83%
- lumbar spine BMD increase from baseline by visit ([3]; 40-μg group, Month 12): 9.41%
- increase in lumbar spine BMD compared to placebo at endpoint ([3]; 40-μg/day): 8%
- distal ⅓ radius (forearm) and ultradistal radius BMD compared with the placebo group ([3]; both 20-μg and 40-μg groups): unchanged
- incidence of new vertebral and non-vertebral fractures compared to placebo [4]: reduced the incidence of new vertebral fractures and non-vertebral fractures

Source: patent US20050255537A1, “Method for monitoring treatment with a parathyroid hormone” (priority 1999, published 2005)
